Residues, ends and D or L forms follow the SMILES beside them. *: point of attachment. Cbz = O=C(OCc1ccccc1)*
How the values were obtained:
LC3 and p62 = experiment: UV-induced degradation of autophagy substrates LC3 and p62 (Western blot); assay type: cell-based, human
Description: Immunoblotting and immunofluorescence analysis: Immunoblotting analysis of proteins in cultured cells: Cells ([…]) were cultured in 35 mm tissue culture plates. After various experimental treatments, cells were lysed using an SDS-PAGE sample buffer. Cell lysates were then analyzed by SDS-PAGE (10% for p62 or 15% for LC3 and polyubiquitin conjugates) and immunoblotting analysis using either anti-ISG15 (raised against human ISG15 (23)), anti-ubiquitin (Sigma-Aldrich), anti-HA (gift from Dr. Walworth at Robert Wood Johnson Medical School/University of Medicine and Dentistry of New Jersey; Piscataway, NJ)), anti-LC3 (MBL International Corporation; Woburn, MA), or p62 (Sigma-Aldrich) antibodies, as indicated, using the ECL Western procedure (Pierce) and the BioRad VersaDoc Imaging System.
Because degradation of proteasome substrates is deregulated in A-T cells, the degradation of the autophagy substrates (autophagic flux) LC3 and p62 was assessed in UV-exposed A-T and ATM+ cells (55). For FIGS. 10A-10D, A-T and ATM+ cells were treated with Bafl (1 nM for 18 h) and then exposed to UV as indicated (25 mJ/m2). Three hours after recovery in the presence of inhibitors, cells were lysed. Cell lysates were analyzed by Western blotting for LC3 (FIG. 10A), p62 […], and actin (lower panels in FIGS. 10A and 10C) using their specific antibodies. Intensity of the total LC3 (LC3-I+II) and p62 proteins was quantitated using BioRad Quantity One software, and the results shown in FIGS. 10B and 10D, respectively. […] show average values (±SEM) of % degradation of LC3 and p62 from three independent experiments. All control values (−UV and +Bafl) are normalized to 100%, and values for experimental treatments were expressed as percent variations over control
UV induces aberrant degradation of autophagy substrate LC3 in A-T cells and brain slices. In FIG. 19A, LC3 degradation in UV-treated A-T cells is shown. […] Intensities of the total LC3 bands were quantitated using BioRad Quantity One software.

LC3 = experiment: UV-induced LC3 degradation in organotypic cerebellar brain slices; assay type: cell-based, mice
Description: In FIG. 19B, LC3 degradation in UV-treated A-T brain slices is shown. The same tissue lysates prepared from A-T and ATM+/− brains used in FIG. 17A were analyzed for LC3 and actin proteins. Intensity of the total LC3 and corresponding actin bands was quantitated using BioRad Quantity One software. The percent changes in LC3 amounts were calculated as a ratio between band intensities of LC3 (I and II) and actin (bar chart). In FIGS. 19A and 19B, the bar graphs have the following legends: bars 1: No drug and +Bafl controls; bars 2: +UV; and bars 3: +Bafl+UV.

p53 = p53 turnover with CHX with or without MG132; assay type: cell-based, human; conditions: ATM+ cells, MG132 10 μM, CHX 10 μg/ml, 6 hours
Description: Both p53 and STAT3 are known targets of the ubiquitin/26S proteasome pathway. To determine whether steady state level of these proteins is regulated by ATM, turnover of both p53 and STAT3 were measured. In FIG. 2C, FT169A (A-T) and FT169A (ATM+) cells were treated with the protein synthesis inhibitor CHX (10 μg/ml) in the presence (lanes 3 and 6) or absence (lanes 2 and 5) of the proteasome inhibitor MG132 (10 μM) for 6 hours. Cell lysates were analyzed by immunoblotting using an anti-p53 antibody (upper row). The intensity of the p53 bands was measured using a Kodak Image station 2000R […]. Results are shown in the bar graph (right panel). The filter used for immunoblotting was stained with Ponceau S to assure equal protein loading (lower row). […] By contrast, p53 protein was rapidly degraded within 6 hours of CHX treatment in FT169A (ATM+) cells (FIG. 2C, lanes 4 and 5, and bar graph for p53 band quantization).

Row | SMILES | UV-mediated degradation of LC3 and p62 (LC3 and p62; A-T cells, Bafl 1 nM 18 h, UV 25 mJ/m2) | LC3 and p62 levels (LC3 and p62; ATM+ cells treated with UV in the absence or presence of Bafl) | UV-induced autophagic flux (LC3 degradation) (LC3 and p62; ATM+ cells, Bafilomycin A1 1 nM 18 h, UV 25 mJ) | aberrant autophagic flux (degradation) of autophagy substrates under genotoxic stress (LC3; A-T cerebellar brain slices) | UV-induced autophagic flux (LC3 degradation) (LC3; ATM+/− cerebellar slices) | turnover of p53 in the presence of CHX (p53)
1 | CO/C1=C\C(C)=C\[C@@H](C)[C@@H](O)[C@@H](C)C/C(C)=C/C=C/[C@H](OC)[C@@H]([C@@H](C)[C@@H](O)[C@H](C)[C@@]2(O)C[C@@H](O)[C@H](C)[C@@H](C(C)C)O2)OC1=O [Bafilomycin A1] | failed to protect | no apparent changes | protected | resistant | protected | –
2 | CC(C)C[C@@H](C=O)NC(=O)[C@H](CC(C)C)NC(=O)[C@H](CC(C)C)NC(=O)OCc1ccccc1 [MG132] (Cbz-Leu-Leu-Leu-aldehyde) | – | – | – | – | – | blocked

— patent publication US12085575B2, “Compositions and methods for detecting proteinopathies” (BOARD OF SUPERVISORS OF LOUISIANA STATE UNIVERSITY AND …, priority 2011, dated 2024)
